Reference: ChEMBL document CHEMBL1151130, “Oxygenated Furanosesterterpene Tetronic Acids from a Sponge of the Genus Ircinia” (J Nat Prod, 1988)
Active and inactive are the calls of the source. No cut-off for these calls is given here.

Experiments:
Poliovirus 1 [1] = assay: Antiviral activity against Poliovirus type 1 infected in […] cells at 20 ug/disk; assay type: functional, organism-based
Human alphaherpesvirus 1 [2] = assay: Antiviral activity against HSV1 infected in […] cells at 20 ug/disk; assay type: functional, organism-based
Poliovirus 1 [3] = assay: Antiviral activity against Poliovirus type 1 infected in […] cells at 2 ug/disk; assay type: functional, organism-based
Human alphaherpesvirus 1 [4] = assay: Antiviral activity against HSV1 infected in […] cells at 2 ug/disk; assay type: functional, organism-based
[5] = Cytotoxicity against […] cells at 2 ug/disk; assay type: cell-based

| SMILES | Activity (Poliovirus 1 [1]) | Activity (Human alphaherpesvirus 1 [2]) | Activity (Poliovirus 1 [3]) | Activity (Human alphaherpesvirus 1 [4]) | Activity [5] |
| --- | --- | --- | --- | --- | --- |
| COC1=C(C)C(=O)O/C1=C\[C@@H](C)CCC/C(C)=C/CC/C(C)=C/CCc1ccoc1 | inactive | inactive | – | – | – |
| COC1=C(C)C(=O)O/C1=C\[C@@H](C)CCC/C(C)=C/CC/C(C)=C/CC(=O)c1ccoc1 | – | – | inactive | inactive | – |
| COC1=C(C)C(=O)O/C1=C\[C@@H](C)CCC/C(C)=C/CCC(C)(O)CCCc1ccoc1 (stereo partly drawn) | inactive | inactive | – | – | – |
| COC1=C(C)C(=O)O/C1=C\[C@@H](C)CCC/C(C)=C/C/C=C(\C)CCC(=O)c1ccoc1 | – | – | inactive | inactive | – |
| C=C(CC/C=C(\C)CCC(=O)c1ccoc1)CCC[C@H](C)/C=C1\OC(=O)C(C)=C1OC | – | – | inactive | inactive | – |
| CC1=C(O)/C(=C/[C@@H](C)CCC/C(C)=C/CCC(C)(O)CCCc2ccoc2)OC1=O (stereo partly drawn) | inactive | inactive | – | – | – |
| CC1=C(O)/C(=C/[C@@H](C)CCC/C(C)=C/CC/C(C)=C/CCc2ccoc2)OC1=O | – | – | – | – | Toxic |
